Activity calls are given as the source filed them.
What was measured:
[1] = luciferase reporter signal suppression in cells – H4 neuroglioma cells, luminescence, dose response (AID 1990); format: functional, cell-based
[2] = Luminescence Cell-Based Dose Response HTS to Identify Inhibitors of 5'UTR Stem-Loop Driven Prion Protein mRNA Translation in H4 Neuroglioblastoma Cells. [Related pubchem assays: 1827 (Project Summary), 1813 (Primary HTS)]; format: functional
[3] = alpha-synuclein stem-loop luciferase translation blockers – H4 neuroglioma cells, luminescence, confirmation (AID 1988); format: functional, cell-based
[4] = HIV-1 Vif–A3G interaction blockers – biochemical, TR-FRET, GST-Vif 1-94, biotin-A3G peptide, dose response retest, primary screen (AID 1117319); format: functional;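 note: TR-FRET signal of purified GST-Vif binding a biotinylated A3G peptide; inhibitors lower the FRET signal by blocking Vif and A3G binding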
[5] = viability loss in Vero cells – cytotoxicity control for Vif-APOBEC3G degradation inhibitor project, dose response (AID 1117358); format: functional; conditions: Vero
HEK293 [6] = assay: cells; conditions: Homo sapiens
HEK293 [7] = assay: cells; conditions: Homo sapiens; remark: listed apart in the source
[8] = target: Voltage-gated inwardly rectifying potassium channel KCNH2 (Homo sapiens, UniProt Q12809); assay: concentration-dependent hERG rescue from blockers – cell-based, thallium flux, dose response (AID 2121); format: ADME
Voltage-gated inwardly rectifying potassium channel KCNH2, sequence (Q12809 whole entry): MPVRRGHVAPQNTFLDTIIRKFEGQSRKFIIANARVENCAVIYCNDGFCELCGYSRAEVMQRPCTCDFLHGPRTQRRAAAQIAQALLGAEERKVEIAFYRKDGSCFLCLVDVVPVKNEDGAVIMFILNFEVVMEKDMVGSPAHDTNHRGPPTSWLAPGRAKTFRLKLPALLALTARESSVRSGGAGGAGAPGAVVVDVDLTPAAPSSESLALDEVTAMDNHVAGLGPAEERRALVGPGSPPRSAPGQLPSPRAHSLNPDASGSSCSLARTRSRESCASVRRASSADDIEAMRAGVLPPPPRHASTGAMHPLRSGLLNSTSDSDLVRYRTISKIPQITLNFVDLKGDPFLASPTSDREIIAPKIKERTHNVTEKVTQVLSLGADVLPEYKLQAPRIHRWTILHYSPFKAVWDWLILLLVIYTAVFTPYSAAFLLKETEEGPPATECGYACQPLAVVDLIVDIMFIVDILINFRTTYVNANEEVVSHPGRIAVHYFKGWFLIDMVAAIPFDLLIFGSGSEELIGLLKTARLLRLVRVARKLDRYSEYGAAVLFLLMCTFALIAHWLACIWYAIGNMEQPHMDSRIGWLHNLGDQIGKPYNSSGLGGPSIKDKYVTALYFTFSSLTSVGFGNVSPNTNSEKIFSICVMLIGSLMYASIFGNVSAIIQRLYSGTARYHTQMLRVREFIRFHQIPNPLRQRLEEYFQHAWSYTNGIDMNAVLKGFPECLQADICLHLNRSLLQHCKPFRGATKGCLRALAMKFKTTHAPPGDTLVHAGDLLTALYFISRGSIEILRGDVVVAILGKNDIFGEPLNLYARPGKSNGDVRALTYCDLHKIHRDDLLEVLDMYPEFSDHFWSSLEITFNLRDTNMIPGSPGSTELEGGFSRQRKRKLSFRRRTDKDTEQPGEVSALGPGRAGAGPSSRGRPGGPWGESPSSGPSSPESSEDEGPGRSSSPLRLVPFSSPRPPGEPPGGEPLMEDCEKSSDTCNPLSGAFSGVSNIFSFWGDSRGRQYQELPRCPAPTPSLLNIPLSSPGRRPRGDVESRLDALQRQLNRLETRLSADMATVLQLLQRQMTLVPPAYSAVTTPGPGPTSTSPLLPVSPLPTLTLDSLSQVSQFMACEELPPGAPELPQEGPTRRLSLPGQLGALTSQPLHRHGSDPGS

Hexokinase = target: T1, Hexokinase (Trypanosoma brucei, UniProt Q38C41); assay: Confirmation assay for inhibitors of Trypanosoma brucei hexokinase 1-Analogue-first series. [Related pubchem assays (depositor defined):AID1430, AID1632, AID2516, AID2560, AID2579, AID2600, AID449725, AID492951]; format: functional
T1 sequence (Q38C41 whole entry): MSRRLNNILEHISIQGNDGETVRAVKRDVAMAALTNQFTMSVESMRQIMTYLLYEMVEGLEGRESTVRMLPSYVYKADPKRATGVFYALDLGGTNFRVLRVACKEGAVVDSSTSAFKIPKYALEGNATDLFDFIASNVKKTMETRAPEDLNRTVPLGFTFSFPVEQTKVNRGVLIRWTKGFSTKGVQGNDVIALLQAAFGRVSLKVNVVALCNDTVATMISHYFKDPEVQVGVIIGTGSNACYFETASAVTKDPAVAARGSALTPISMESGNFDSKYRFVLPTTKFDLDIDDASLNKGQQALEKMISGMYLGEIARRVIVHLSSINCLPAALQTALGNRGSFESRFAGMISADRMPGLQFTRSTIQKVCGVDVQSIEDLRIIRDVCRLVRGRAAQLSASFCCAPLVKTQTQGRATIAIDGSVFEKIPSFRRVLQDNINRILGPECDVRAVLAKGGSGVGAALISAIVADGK

[9] = target: Mitogen-activated protein kinase 10 (Homo sapiens, UniProt P53779); assay: Dose response biochemical screening assay for inhibitors of c-Jun N-Terminal Kinase 3 (JNK3). [Related pubchem assays: 746 ]
Mitogen-activated protein kinase 10, sequence (P53779 whole entry): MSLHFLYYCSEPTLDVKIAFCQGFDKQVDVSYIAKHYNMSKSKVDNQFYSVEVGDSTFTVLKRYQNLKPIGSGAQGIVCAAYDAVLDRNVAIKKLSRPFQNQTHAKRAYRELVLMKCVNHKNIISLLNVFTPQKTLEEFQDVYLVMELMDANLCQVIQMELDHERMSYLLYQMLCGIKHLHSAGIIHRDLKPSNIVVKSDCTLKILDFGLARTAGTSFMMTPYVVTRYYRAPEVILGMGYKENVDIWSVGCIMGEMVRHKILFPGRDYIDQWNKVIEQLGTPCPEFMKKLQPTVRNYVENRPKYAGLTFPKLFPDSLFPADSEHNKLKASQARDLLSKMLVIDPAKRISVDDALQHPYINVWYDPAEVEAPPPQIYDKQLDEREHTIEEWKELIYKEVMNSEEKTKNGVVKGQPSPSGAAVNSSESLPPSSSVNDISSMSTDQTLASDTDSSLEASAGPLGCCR

Leucine aminopeptidase = target: T2, Leucine aminopeptidase (Plasmodium falciparum 3D7, UniProt Q8IL11); assay: P. falciparum M17LAP inhibitors, primary screen, biochemical, fluorogenic H-Leu-NHMec substrate, 1536-well (AID 1619); format: functional
T2 sequence (Q8IL11 whole entry): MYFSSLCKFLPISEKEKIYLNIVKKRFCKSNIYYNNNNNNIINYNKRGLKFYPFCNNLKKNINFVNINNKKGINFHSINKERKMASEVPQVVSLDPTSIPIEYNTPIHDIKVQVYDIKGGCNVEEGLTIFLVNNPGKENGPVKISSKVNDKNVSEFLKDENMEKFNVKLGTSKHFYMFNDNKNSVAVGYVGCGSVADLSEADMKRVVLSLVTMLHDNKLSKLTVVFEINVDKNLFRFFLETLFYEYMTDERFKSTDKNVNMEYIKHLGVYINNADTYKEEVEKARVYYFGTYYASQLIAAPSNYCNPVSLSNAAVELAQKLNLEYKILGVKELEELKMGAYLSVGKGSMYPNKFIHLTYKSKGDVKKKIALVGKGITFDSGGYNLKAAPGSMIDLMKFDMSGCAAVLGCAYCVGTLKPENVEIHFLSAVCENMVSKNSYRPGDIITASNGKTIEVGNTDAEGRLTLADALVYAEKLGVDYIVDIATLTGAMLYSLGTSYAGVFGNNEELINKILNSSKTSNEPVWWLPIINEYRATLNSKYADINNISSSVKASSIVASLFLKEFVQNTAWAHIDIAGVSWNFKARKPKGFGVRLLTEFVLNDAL

[10] = target: Ubiquitin carboxyl-terminal hydrolase BAP1 (Homo sapiens, UniProt Q92560); assay: inhibition of BAP1 ubiquitin hydrolase activity – biochemical, dose response (AID 714); format: functional
Ubiquitin carboxyl-terminal hydrolase BAP1, sequence (Q92560 whole entry): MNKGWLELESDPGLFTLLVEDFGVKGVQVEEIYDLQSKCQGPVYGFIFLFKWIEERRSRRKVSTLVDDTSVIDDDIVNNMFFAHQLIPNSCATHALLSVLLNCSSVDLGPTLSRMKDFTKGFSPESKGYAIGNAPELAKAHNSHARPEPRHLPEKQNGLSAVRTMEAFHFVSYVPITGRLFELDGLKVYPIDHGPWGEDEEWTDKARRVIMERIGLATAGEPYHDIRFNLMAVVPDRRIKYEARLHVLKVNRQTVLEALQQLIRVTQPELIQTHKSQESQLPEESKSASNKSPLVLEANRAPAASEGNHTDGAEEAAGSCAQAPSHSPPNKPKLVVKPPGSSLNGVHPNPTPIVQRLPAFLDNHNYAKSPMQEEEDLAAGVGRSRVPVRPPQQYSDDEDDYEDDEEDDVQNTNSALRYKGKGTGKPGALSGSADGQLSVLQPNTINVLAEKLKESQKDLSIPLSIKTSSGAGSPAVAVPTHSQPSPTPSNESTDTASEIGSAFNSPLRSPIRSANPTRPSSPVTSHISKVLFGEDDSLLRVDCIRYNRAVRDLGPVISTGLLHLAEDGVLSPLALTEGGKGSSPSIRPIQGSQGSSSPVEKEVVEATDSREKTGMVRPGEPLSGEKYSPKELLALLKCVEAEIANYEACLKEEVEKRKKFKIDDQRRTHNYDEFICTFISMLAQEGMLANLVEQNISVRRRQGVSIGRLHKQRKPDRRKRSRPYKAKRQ

Estrogen receptor = Estrogen receptor (Homo sapiens, UniProt P03372);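 note: potency for inhibiting coactivator peptide recruitment to the receptor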
Estrogen receptor, sequence (P03372 whole entry): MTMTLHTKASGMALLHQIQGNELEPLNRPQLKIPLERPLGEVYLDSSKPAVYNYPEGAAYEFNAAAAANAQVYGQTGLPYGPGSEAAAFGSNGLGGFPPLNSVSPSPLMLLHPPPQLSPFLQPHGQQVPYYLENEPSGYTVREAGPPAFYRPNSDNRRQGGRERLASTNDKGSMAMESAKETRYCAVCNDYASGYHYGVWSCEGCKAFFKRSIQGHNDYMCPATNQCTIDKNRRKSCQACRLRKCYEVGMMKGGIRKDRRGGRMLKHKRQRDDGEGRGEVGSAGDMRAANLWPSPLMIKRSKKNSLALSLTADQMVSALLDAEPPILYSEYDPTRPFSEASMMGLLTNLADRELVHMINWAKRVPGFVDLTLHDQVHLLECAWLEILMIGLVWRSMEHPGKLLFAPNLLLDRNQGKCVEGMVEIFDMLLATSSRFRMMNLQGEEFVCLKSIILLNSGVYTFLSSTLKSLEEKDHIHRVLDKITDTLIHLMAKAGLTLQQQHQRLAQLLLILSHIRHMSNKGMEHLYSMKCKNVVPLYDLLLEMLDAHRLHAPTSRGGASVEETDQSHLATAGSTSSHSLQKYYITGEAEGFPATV

Estrogen receptor beta = Estrogen receptor beta (Homo sapiens, UniProt Q92731); assay: blockers of SRC-3 recruitment to ERβ – biochemical, ELISA, streptavidin-HRP readout, orthogonal assay, confirmation (AID 1060)
Estrogen receptor beta, sequence (Q92731 whole entry, the tested form may be a part): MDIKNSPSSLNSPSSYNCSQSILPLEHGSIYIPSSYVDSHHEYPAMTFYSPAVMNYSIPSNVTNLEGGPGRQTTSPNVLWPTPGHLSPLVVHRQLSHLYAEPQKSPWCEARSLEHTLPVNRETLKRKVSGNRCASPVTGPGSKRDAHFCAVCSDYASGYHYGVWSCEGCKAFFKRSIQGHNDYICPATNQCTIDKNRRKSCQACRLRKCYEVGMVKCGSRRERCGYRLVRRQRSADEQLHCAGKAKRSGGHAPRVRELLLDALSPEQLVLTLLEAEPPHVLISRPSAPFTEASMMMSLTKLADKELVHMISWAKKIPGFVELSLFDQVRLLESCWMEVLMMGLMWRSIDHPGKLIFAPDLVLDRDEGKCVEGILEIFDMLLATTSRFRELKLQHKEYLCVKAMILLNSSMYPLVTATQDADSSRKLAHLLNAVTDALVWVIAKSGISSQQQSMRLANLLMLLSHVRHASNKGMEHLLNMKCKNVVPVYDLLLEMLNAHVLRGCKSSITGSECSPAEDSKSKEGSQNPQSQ

[11] = target: T3, Carboxy-terminal domain RNA polymerase II polypeptide A small phosphatase 1 (Homo sapiens, UniProt Q9GZU7); assay: CTDSP1 inhibitors, concentration-response, biochemical, absorbance readout, ultra-high-throughput screen actives (AID 540297); format: functional
T3 sequence (Q9GZU7 whole entry): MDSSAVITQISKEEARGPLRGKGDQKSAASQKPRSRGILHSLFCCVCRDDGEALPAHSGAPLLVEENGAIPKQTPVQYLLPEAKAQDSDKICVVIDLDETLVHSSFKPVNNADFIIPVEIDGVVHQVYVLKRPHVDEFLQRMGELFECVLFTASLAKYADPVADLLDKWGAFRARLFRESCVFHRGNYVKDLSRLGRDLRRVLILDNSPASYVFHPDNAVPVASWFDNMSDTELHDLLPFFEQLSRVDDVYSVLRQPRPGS

[12] = target: Sphingosine 1-phosphate receptor 2 (Homo sapiens, UniProt O95136); assay: Dose Response Cell Based Assay for Antagonists of the S1P2 Receptor. [Related pubchem assays: 856, 736 ]; format: functional
Sphingosine 1-phosphate receptor 2, sequence (O95136 whole entry): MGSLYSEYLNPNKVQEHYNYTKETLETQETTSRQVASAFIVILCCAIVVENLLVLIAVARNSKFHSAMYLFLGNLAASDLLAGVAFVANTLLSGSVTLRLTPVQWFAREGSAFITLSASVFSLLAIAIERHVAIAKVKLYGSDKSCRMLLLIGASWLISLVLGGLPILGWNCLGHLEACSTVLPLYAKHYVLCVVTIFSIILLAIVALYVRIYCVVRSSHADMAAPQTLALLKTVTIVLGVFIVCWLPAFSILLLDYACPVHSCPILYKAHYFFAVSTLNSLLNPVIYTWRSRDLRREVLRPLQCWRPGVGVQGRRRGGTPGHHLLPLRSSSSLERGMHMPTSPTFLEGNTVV

INS1 = assay: INS-1E survival protection against cytokine death – cell-based, luminescence, retest, dose response (AID 449756); format: functional; conditions: Rattus norvegicus;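 note: cell death triggered by IL-1 beta plus TNF-alpha plus IFN-gamma mixture; protective hits raise ATP signal compared with cytokine alone wells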
[13] = target: T4, COUP transcription factor 2 (Homo sapiens, UniProt P24468); assay: Luminescence-based cell-based high throughput dose response assay to identify inhibitors of COUP-TFII (NR2F2).; format: functional;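 note: HEK293 cells transiently cotransfected with COUP-TFII expression vector and reporter; luciferase reporter luminescence driven by COUP-TFII from the pX2-168 reporter plasmid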
T4 sequence (P24468 whole entry): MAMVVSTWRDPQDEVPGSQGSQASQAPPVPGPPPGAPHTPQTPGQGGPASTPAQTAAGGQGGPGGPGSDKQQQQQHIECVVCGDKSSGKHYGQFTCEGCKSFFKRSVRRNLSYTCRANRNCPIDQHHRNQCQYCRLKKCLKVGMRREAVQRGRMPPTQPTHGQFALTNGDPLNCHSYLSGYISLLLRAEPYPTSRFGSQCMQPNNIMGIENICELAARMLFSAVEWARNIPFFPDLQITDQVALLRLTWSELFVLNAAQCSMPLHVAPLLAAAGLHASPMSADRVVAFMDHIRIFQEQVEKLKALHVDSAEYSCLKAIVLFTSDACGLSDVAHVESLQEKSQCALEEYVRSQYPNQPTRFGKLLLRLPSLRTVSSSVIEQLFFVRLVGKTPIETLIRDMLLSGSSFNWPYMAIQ

[14] = Luminescent dose response cell-based high throughput screening assay for inhibitors of the Janus kinase 2 mutant JAK2V617F. [Related pubchem assays: 1446 (Primary screen.), 1521 (Confirmation assay.), 1486 (Counter screen.)]; format: functional
[15] = Trypanosoma cruzi growth suppression in host cells – NIH3T3 host cells, beta-gal luminescence, confirmation (AID 2044); format: functional, cell-based;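 note: intracellular parasites grown in NIH/3T3 mouse fibroblasts as host cells; luminescent beta-galactosidase reporter signal from transgenic T. cruzi replicating inside host cells; inhibitors lower the luminescence signal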
[16] = NIH3T3 cell viability loss – ATP luminescence, mouse fibroblasts, counter-screen, dose response (AID 2010); format: functional, cell-based;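 note: cells exposed to compound for about 90 hours before reading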
[17] = THP-1 cell cytotoxicity, dose response, cytotoxicity control for non-replicating M. tuberculosis project (AID 489025); format: functional
[18] = Vero E6 cell cytotoxicity, dose response, cytotoxicity control for non-replicating M. tuberculosis project, secondary assay (AID 492998); format: functional, VeroE6; conditions: Vero C1008
cells = format: functional
HEK293 [19] = assay: EBV LMP1 TES2 canonical NF-kB signalling blockers – cell-based, HEK293, luciferase, cherry-pick, dose response (AID 588343); format: functional; conditions: Homo sapiens
[20] = viability inhibitors of stage V gametocytes – luminescence, dose response (AID 1117278); format: functional, cell-based;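 note: gametocytes exposed to compound for 24 hours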
[21] = viability loss in human Jurkat cells – cell-based, luminescence, cytotoxicity control for P. falciparum gametocyte viability project, dose response (AID 1117277); format: functional;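 note: potency reflects loss of cellular ATP meaning fewer viable cells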
[22] = Dd2 parasite growth inhibition in erythrocytes – SYBR Green, dry powder samples, set 9, dose response (AID 1159568); format: functional, cell-based
[23] = target: G-protein coupled receptor 183 (Homo sapiens, UniProt P32249); assay: SAR confirmation of small molecule antagonists of the EBI2 receptor via a luminescent beta-arrestin assa.; format: functional
G-protein coupled receptor 183, sequence (P32249 whole entry): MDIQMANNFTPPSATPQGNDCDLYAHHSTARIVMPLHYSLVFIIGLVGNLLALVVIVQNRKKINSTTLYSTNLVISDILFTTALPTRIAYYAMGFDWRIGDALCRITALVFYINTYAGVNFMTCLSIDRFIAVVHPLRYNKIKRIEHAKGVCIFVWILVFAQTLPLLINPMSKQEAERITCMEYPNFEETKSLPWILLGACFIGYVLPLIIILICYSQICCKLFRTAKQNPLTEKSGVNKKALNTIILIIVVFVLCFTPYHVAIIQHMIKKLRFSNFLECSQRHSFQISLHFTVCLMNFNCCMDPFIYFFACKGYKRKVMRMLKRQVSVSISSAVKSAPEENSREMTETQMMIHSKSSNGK

[24] = P. falciparum Dd2 growth inhibitors, dose response, SYBR Green, cherry-picked samples (AID 1159567); format: functional, cell-based
[25] = toxicity to human hepatoma HepG2 cells – cell-based, cherry-picked samples, cytotoxicity control, dose response (AID 1159577); format: functional
[26] = target: T5, Low molecular weight phosphotyrosine protein phosphatase (Homo sapiens, UniProt P24666); assay: inhibition of LMPTP-A enzymatic activity – biochemical, OMFP substrate, fluorescence intensity, set 2, dose response (AID 743307); format: functional
T5 sequence (P24666 whole entry): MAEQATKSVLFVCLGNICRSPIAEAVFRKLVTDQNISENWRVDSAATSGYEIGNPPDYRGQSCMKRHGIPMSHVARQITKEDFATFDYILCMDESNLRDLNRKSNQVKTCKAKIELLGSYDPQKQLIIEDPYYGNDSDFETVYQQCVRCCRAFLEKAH

[27] = target: T5, Low molecular weight phosphotyrosine protein phosphatase; assay: inhibition of human LMPTP enzyme activity – biochemical, absorbance, pNPP substrate, LMPTP-A isoform, set 2, orthogonal assay, dose response (AID 743308); format: functional
[28] = rise of 2N DNA cells, HeLa – IC50, dose response (AID 1117349); format: functional, cell-based
[29] = CellTiter-Glo luminescence survival assay, SW480 colon tumor line, concentration-response curve, half-maximal inhibitory concentration (AID 1117338); format: functional
[30] = RKO cell viability reduction, dose response, CellTiter-Glo luminescence (AID 1117322); format: functional
[31] = cytotoxicity toward HCT116 cells – cell-based, CellTiter-Glo luminescence, IC50, dose response (AID 1117332); format: functional; conditions: HCT-116
[32] = SNU-C1 cell viability reduction, dose response, CellTiter-Glo luminescence (AID 1117323); format: functional, cell-based
[33] = cytotoxicity toward Colo320 cells – cell-based, CellTiter-Glo luminescence, IC50, dose response (AID 1117334); format: functional; conditions: COLO 320
[34] = rise of 4N DNA cells, HeLa – IC50, dose response (AID 1117351); format: functional, cell-based
[35] = cytotoxicity toward HT-29 cells – cell-based, CellTiter-Glo luminescence, IC50, dose response (AID 1117330); format: functional
[36] = Reduced DLD-1 viability, concentration-response, CellTiter-Glo luminescence (AID 1117352); format: functional
[37] = HCT116 cell viability decrease, GSK3B pretreatment – CellTiter-Glo, IC50, dose response (AID 1117339); format: functional; conditions: HCT-116

CC(C)c1nc2sc3c(NCc4ccco4)ncnc3c2c2c1COC(C)(C)C2
EC50 [1]: 19.2 µM (active)
EC50 [2]: > 120 µM (not active)
EC50 [3]: > 120 µM (not active)
IC50 [4]: > 50 µM (active)
CC50 [5]: > 40 µM (active)
EC50 (HEK293 [6]): > 59.6 µM (inactive)
EC50 (HEK293 [7]): > 59.6 µM (inactive)

COc1ccc(C(=O)Nc2ccccc2C(=O)O)cc1Cl
EC50 [8]: 13 µM (active)
IC50 (Hexokinase): > 25 µM (inactive)

COc1ccc(C2C(C#N)=C(N)SC(N)=C2C#N)cc1OC
IC50 [9]: > 31 µM (not active)

CCOC(=O)c1ccc(NC(=O)CSc2nc(C)cc(=O)[nH]2)cc1
IC50 (Leucine aminopeptidase): 11.8 µM (active)
IC50 [10]: 23.3 µM (active)
IC50 (Estrogen receptor): 3.06 µM (active)
IC50 (Estrogen receptor beta): < 0.023 µM (not active)
IC50 [11]: 2.67 µM (active)

CCOC(=O)N1CCN(C(=O)CSCC(=O)Nc2nc(-c3ccc(-c4ccccc4)cc3)cs2)CC1
IC50 [12]: 2.47 µM (active)
AC50 (INS1): 4.63 µM (active)
IC50 [13]: 5.66 µM (active)

COc1ccccc1-c1nnc(Sc2nc([N+](=O)[O-])nn2C)o1
IC50 [14]: 1.52 µM (active)
EC50 [15]: 0.556 µM (active)
EC50 [16]: 17.5 µM (active)
CC50 [17]: 13.6 µM (active)
CC50 [18]: 17.5 µM (active)
IC50 (cells): 1.95 µM (active)
AC50 (HEK293 [19]): 4.37 µM (active)

CC(=O)c1c(C)[nH]c(C(=O)COC(=O)C2CC2)c1C
IC50 [20]: > 109 µM (inactive)
IC50 [21]: > 83.2 µM (inactive)

COc1ccc2c3c(n(C)c2c1)[C@@H](CO)N(Cc1ccc2c(c1)OCO2)CC31CN(C(=O)c2ccc3c(c2)OCO3)C1
AC50 [22]: 1.21 µM (active)

Cc1ccc(S(=O)(=O)N2CCN(C(=O)/C=C/c3ccc(F)cc3)CC2)cc1
IC50 [23]: 0.00767 µM (active)

Cc1ccccc1S(=O)(=O)N1CC(=O)N2[C@H](C1)[C@@H](c1ccc(C#CCC3CCCC3)cc1)[C@@H]2CO
AC50 [24]: 3.64 µM (active)
AC50 [25]: > 42 µM (inactive)

c1ccc2c(NCCCN3CCCCC3)cc(-c3ccncc3)nc2c1
IC50 [26]: 2.48 µM (active)
IC50 [27]: 6.49 µM (active)

Cc1c(C)c2c(c(C)c1O)CCC(C)(COc1ccc(CC3SC(=O)NC3=O)cc1)O2 (stereo not drawn) [TROGLITAZONE]
IC50 [28]: > 10 µM (inactive)
IC50 [29]: 5.59 µM (inactive)
IC50 [30]: 7.76 µM (inactive)
IC50 [31]: 1.4 µM (active)
IC50 [32]: > 20 µM (inactive)
IC50 [33]: 9.49 µM (inactive)
IC50 [34]: > 10 µM (inactive)
IC50 [35]: > 20 µM (inactive)
IC50 [36]: 12.3 µM (inactive)
IC50 [37]: 1.3 µM (active)

From ChEMBL document CHEMBL1201862, “PubChem BioAssay data set” (2004)
